Patent US8846704B2, “Thiopyrimidine-based compounds and uses thereof” (YM Biosciences Austraila Pty Ltd, priority 2007, dated 2014)

Experiments:
[1] = target: T1, human JAK3 (Homo sapiens, UniProt P52333); test: Alphascreen tyrosine kinase enzyme assay, JAK3 kinase domain; type: biochemical; conditions: read-out: JAK3 IC50_nM
T1 construct: The kinase domain of human JAK3 was amplified; GST (N); made in house; host or cells: Sf9 insect cells (baculovirus)
Experimental: (§1) For screening purposes, compounds (in 100% DMSO) were warmed at 37 degrees for at least 20 minutes before use. A […] stock was initially made in assay buffer, where the final concentration of DMSO was 0.3%. The stocks were then diluted in 384 well Optiplates (Packard) where the final concentration of the compound was […].
The kinase domain of human JAK3 was amplified from U937mRNA using the polymerase chain reaction with the following primers: […]
The JAK3 PCR products were cloned into the pDest20 destination expression vector (Gibco). The JAK3 plasmid was then transformed into competent DH10Bac cells (Gibco), and the recombinant baculovirus was prepared via Sf9 insect cell transfection.
(§2) Baculovirus preparations from each of the constructs were infected into either one or five liters of Sf9 cells (Invitrogen) grown in SF-900 medium (Invitrogen) to a cell density of approximately 1-2×10^6 cells/ml. Cells were infected with virus at a MOI of 0.8-3.0. Cells were harvested and lysed. Tyrosine kinase domains were purified by affinity chromatography on a glutathione-agarose column (Scientifix Pty. Ltd. catalog #: GSH-200).
(§3) Kinase assays were performed in 384 well Optiplates (Packard) using an Alphascreen Protein Tyrosine Kinase PY100 detection kit The compounds were pre-incubated with affinity purified PTK domain in the presence of phosphotyrosine assay buffer (10 mM HEPES, pH 7.5, 100 mM MgCl2, 25 mM NaCl, […] and 0.1% Tween 20) for 20 minutes. The compounds were then incubated with substrate in the presence of ATP. The substrate used was susbtrate-1 with the sequence biotin-EGPWLEEEEEAYGWMDF-NH2 [SEQ. ID. NO. 13] (final concentration […]). For HCK 80 μm ATP was used and incubated for 60 minutes. Alphascreen phosphotyrosine acceptor beads followed by streptavidin donor beads at a concentration of 1/100 in stop buffer were added to each well under subdued light and incubated for 2-3 hours., The Alphascreen plates were read on a Packard Fusion Alpha instrument.

[2] = target: T2, BaF3 TELJAK2 cells (BafT_J2) (Homo sapiens, UniProt O60674); test: Cellular screening, BaF3 TEL:JAK2 cells, Alamar Blue; type: cell-based; conditions: 40 hr, read-out: BafT_J2 IC50_nM
T2 construct: fused on or other part: TEL (ETV6) N-terminal part, coding nucleotides 1-487, serves as the oligomerising partner; It is fused through a Sal I site to the JAK2 kinase domain and expressed from pTRE2 in BaF3 cells bearing pTET-off; P41212 (Transcription factor ETV6)
Experimental: For screening purposes, compounds were diluted in 96 well plates at a concentration of 20 μM. Plates were warmed at 37° C. for 30 minutes before the assay was performed.
The coding region encompassing nucleotides 1-487 of TEL was amplified by PCR using the oligonucleotides STEL (5′-GGAGGATCCTGATCTCTCTCGCTGTGAGAC-3′) [SEQ ID NO 14] and 3TEL (5′-AGGC GTCGACTTCTTCTTCATGGTTCTG-3′) [SEQ ID NO 15] and U937 mRNA as a template. A […] restriction site was incorporated into the STEL primer, and a Sal I restriction site was incorporated into the 3TEL primer. The regions encompassing the kinase domain of JAK2 (nucleotides 2994-3914; JAK2F 5′-ACGC GTCGACGGTGCCTTTGAAGACCGGGAT-3′ [SEQ ID NO 16]; JAK2R 5′-ATAGTTTAGCGGCCGCTCAGAATGAAGGTCATTT-3′) [SEQ ID NO 17] and JAK3 (nucleotides 2520-3469; JAK3F 5′-GAAGTCGACTATGCCTGCCAAGACCCCACGATCTT-3′) [SEQ ID NO 18] were generated by PCR using Taq DNA polymerase (Gibco/BRL) and […] as a template. A Sal I restriction site was incorporated into the forward primer of JAK2 and JAK3, a Not I site was incorporated into the JAK2 reverse primer and a Xba I site was added to the reverse primer of JAK3.
A TEL/Jak2 fusion was generated by digestion of the TELPCR product with BamH I/Sal I restriction enzymes, digestion of the JAK2 PCR product with Sal I/Not I restriction enzymes, followed by ligation and subcloning of the ligation product into the mammalian expression Vector pTRE 2 (Clontech), which was prepared by digestion with BamH I-Not I restriction enzymes, to give the TEL/Jak2 fusion plasmid pTELJAK2.
The growth factor dependant myelomonocytic cell line BaF3 bearing the pTET-off plasmid (Clontech) was transfected with either pTELJAK2 or pTELJAK3, and the transfected cells were selected for growth-factor independent cell growth. The BaF3 wild-type cells were cultured in DMEM containing 10% FCS, 10% WEHI 3B conditioned medium. The BaF3 TELJAK cells ([…]) were cultured in DMEM 10% Tet-System Approved FBS (without WEHI 3B conditioned medium).
Cell suspensions were prepared by harvesting cells from culture (the cells used in this test were in late log phase growth with high viability.) Cells were diluted in the appropriate growth medium, as described above, to 1.1× final concentration (from 50,000 cell/mL to 200,000 cell/mL, depending on cell line).
Compounds to be tested were added (10 μL, 10× final concentration) to a flat bottomed 96-well plate. The cellular suspension (90 μL per well) was then added, and the plate incubated for 40 hr at 37° C., 5% CO2. Alamar Blue 10 μL per well was added and the plates returned to the incubator for a further 4-6 hours. The plates were then read at 544 nm.

[3] = target: T3, human JAK2 (Homo sapiens, UniProt O60674); test: Alphascreen tyrosine kinase enzyme assay, JAK2 kinase domain; type: biochemical; conditions: read-out: JAK2 IC50_nM
T3 construct: The kinase domain of human JAK2 was amplified; GST (N); made in house; host or cells: Sf9 insect cells (baculovirus)
Experimental: as §1
The kinase domain of human JAK2 was amplified from U937mRNA using the polymerase chain reaction with the following primers: […]
The JAK2 PCR products were cloned into the pDest20 destination vector (Gibco). The JAK2 plasmid was then transformed into competent DH10Bac cells (Gibco), and the recombinant baculovirus was prepared via Sf9 insect cell transfection.
as §2, §3

T2 sequence (O60674 whole entry, change not shown, the tested form may be a part): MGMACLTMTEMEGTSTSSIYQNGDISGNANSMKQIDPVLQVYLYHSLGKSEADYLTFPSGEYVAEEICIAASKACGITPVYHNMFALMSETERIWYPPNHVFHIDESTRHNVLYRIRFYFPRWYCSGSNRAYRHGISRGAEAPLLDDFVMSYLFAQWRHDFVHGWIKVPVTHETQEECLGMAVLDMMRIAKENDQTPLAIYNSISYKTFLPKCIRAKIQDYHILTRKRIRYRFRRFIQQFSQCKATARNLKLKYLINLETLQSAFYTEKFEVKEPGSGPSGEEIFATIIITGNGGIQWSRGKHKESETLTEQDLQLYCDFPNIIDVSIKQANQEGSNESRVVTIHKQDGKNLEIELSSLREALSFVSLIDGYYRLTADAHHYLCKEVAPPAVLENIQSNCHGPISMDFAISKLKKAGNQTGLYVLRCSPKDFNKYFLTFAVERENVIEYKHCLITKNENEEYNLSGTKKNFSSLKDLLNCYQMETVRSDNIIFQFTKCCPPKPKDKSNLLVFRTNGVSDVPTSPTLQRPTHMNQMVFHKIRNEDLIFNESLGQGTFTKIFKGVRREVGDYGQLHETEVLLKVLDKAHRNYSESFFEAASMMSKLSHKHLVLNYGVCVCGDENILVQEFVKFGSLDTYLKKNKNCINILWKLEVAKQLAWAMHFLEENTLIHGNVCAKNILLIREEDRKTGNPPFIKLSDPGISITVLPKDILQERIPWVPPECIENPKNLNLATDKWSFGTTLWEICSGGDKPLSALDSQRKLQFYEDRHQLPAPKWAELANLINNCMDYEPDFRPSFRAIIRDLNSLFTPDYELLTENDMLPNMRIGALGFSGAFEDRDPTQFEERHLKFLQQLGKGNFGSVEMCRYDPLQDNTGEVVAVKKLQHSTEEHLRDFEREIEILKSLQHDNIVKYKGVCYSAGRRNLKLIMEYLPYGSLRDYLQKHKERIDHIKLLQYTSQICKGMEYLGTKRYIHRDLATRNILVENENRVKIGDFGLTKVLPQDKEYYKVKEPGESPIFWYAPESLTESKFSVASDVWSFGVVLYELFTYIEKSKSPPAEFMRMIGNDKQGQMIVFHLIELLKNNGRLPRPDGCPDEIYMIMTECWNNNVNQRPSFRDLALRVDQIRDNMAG
T3 sequence (O60674 849-1124 limits assumed): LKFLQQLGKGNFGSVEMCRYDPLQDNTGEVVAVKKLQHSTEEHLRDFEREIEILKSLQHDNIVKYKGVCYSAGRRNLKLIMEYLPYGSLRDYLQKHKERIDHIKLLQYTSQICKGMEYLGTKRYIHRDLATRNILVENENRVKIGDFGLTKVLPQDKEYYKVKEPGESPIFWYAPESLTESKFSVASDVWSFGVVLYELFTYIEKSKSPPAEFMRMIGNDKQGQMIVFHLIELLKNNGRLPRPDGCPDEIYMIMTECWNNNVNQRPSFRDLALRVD
T1 sequence (P52333 822-1111 limits assumed): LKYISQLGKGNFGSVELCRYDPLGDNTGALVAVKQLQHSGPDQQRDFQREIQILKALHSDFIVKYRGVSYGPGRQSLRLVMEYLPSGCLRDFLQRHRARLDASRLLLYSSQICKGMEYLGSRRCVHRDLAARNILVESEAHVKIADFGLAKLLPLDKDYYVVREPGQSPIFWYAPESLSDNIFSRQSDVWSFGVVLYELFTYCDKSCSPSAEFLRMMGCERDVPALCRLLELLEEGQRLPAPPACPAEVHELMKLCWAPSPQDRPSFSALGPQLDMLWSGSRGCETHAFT

SMILES | IC50 [1] [nM] | GI50 [2] [nM] | IC50 [3] [nM]
C=CC(=O)Nc1ccc(Sc2nc(Nc3cccc(N4CCOCC4)c3)ncc2I)cc1 [Compound 269, N-(4-(5-iodo-2-(3-morpholinophenylao)pyrimidin-4-ylthio)phenyl)acrylamide] | < 100 | < 20000 | > 1000
C=CC(=O)Nc1ccc(Sc2nc(Nc3ccc(C)c(Br)c3)ncc2C)cc1 [Compound 242, N-(4-(2-(3-bromo-4-methylphenylao)-5-methylpyrimidin-4-ylthio)phenyl)acrylamide] | < 500 | > 20000 | > 1000
Nc1ccc(Sc2nc(Nc3cccc(N4CCOCC4)c3)ncc2I)cc1 [Compound 264, 4-(4-aophenylthio)-5-iodo-N-(3-morpholinophenyl)pyrimidin-2-ae] | < 500 | < 5000 | > 1000
C=CC(=O)Nc1ccc(Sc2ccnc(Nc3cccc(CO)c3)n2)cc1 [Compound 278, N-(4-(2-(3-(hydroxymethyl)phenylao)pyrimidin-4-ylthio)phenyl)acrylamide] | < 100 | < 5000 | > 1000
COc1ccc(Nc2ncc(C)c(Sc3ccc(N)cc3)n2)cc1OC [Compound 240, 4-(4-aophenylthio)-N-(3,4-dimethoxyphenyl)-5-methylpyrimidin-2-ae] | < 500 | < 5000 | > 1000
C=CC(=O)Nc1ccc(Sc2ccnc(Nc3ccc(O)cc3)n2)cc1 [Compound 276, N-(4-(2-(4-hydroxyphenylao)pyrimidin-4-ylthio)phenyl)acrylamide] | < 100 | < 20000 | > 1000
C=CC(=O)Nc1ccc(Sc2nc(Nc3ccc(N4CCOCC4)cc3)ncc2C)cc1C [Compound 259] | < 100 | < 20000 | > 1000
C=CC(=O)Nc1ccc(Nc2nccc(SC)n2)cc1 [Compound 13, N-(4-(4-(methylthio)pyrimidin-2-ylao)phenyl)acrylamide] | < 100 | < 20000 | > 1000
C=CC(=O)Nc1cccc(Nc2nccc(Sc3ccccc3)n2)c1 [Compound 16, N-(3-(4-(phenylthio)pyrimidin-2-ylamino)phenyl)acrylamide] | < 100 | < 5000 | > 1000
C=CC(=O)Nc1ccc(Sc2nc(Nc3ccc(N4CCOCC4)nc3)ncc2C)cc1 [Compound 254, N-(4-(5-methyl-2-(6-morpholinopyridin-3-ylao)pyrimidin-4-ylthio)phenyl)acrylamide] | < 100 | < 5000 | > 1000
C=CC(=O)Nc1ccc(Sc2ccnc(Nc3ccc(N4CCN(C)CC4)cc3)n2)cc1 [Compound 238, N-(4-(2-(4-(4-methylpiperazin-1-yl)phenylao)pyrimidin-4-ylthio)phenyl)acrylamide] | < 100 | < 5000 | > 1000
C=CC(=O)Nc1ccc(Sc2nc(Nc3cccc(OC)c3)ncc2C)cc1 [Compound 235, N-(4-(2-(3-methoxyphenylao)-5-methylpyrimidin-4-ylthio)phenyl)acrylamide] | < 100 | < 20000 | > 1000
Cc1cnc(Nc2ccc(N3CCOCC3)cc2)nc1Sc1ccc(N)nc1 [Compound 262, 4-(6-aopyridin-3-ylthio)-5-methyl-N-(4-morpholinophenyl)pyrimidin-2-ae] | < 500 | < 20000 | < 500
CC#CC(=O)Nc1cccc(Sc2ccnc(Nc3cccc(N4CCOCC4)c3)n2)c1 [Compound 232, N-(3-(2-(3-morpholinophenylao)pyrimidin-4-ylthio)phenyl)but-2-ynamide] | < 100 | < 20000 | > 1000
C=CC(=O)Nc1ccc(Sc2nc(Nc3ccc(N4CCC(CO)CC4)cc3)ncc2Br)cc1 [Compound 253, N-(4-(5-bromo-2-(4-(4-(hydroxymethyl)piperidin-1-yl)phenylao)pyrimidin-4-ylthio)phenyl)acrylamide] | < 100 | < 20000 | > 1000
C=CC(=O)Nc1ccc(Sc2nc(Nc3ccc(N4CCN(C)CC4)c(OC)c3)ncc2C)cc1 [Compound 249, N-(4-(2-(3-methoxy-4-(4-methylpiperazin-1-yl)phenylao)-5-methylpyrimidin-4-ylthio)phenyl)acrylamide] | < 100 | < 5000 | > 1000
CC#CC(=O)Nc1cccc(Nc2nccc(SC)n2)c1 [Compound 8, N-(3-(4-(methylthio)pyrimidin-2-ylao)phenyl)but-2-ynamide] | < 100 | < 5000 | > 1000
Cc1cc(Sc2nc(Nc3ccc(N4CCOCC4)cc3)ncc2C)ccc1N [Compound 255, 4-(4-ao-3-methylphenylthio)-5-methyl-N-(4-morpholinophenyl)pyrimidin-2-ae] | < 500 | < 20000 | < 1000
Nc1ccc(Sc2nc(Nc3ccc(N4CCOCC4)cc3)ncc2F)cc1 [Compound 263, 4-(4-aophenylthio)-5-fluoro-N-(4-morpholinophenyl)pyrimidin-2-ae] | < 500 | < 5000 | > 1000
Cc1cnc(Nc2cccc(N3CCN(C)CC3)c2)nc1Sc1ccc(N)cc1 [Compound 245, 4-(4-aophenylthio)-5-methyl-N-(3-(4-methylpiperazin-1-yl)phenyl)pyrimidin-2-ae] | < 500 | < 1000 | < 500
C=CC(=O)Nc1ccc(Sc2nc(Nc3cccc(N4CCOCC4)c3)ncc2C)cc1 [Compound 237, N-(4-(5-methyl-2-(3-morpholinophenylao)pyrimidin-4-ylthio)phenyl)acrylamide] | < 100 | < 5000 | > 1000
